According to US20240101559A1, “TRICYCLIC KINASE INHIBITORS AND USES THEREOF” (DANA-FARBER CANCER INSTITUTE, INC., priority 2019, published 2024):
Blank lines part the entries; values can stand above or below the compound they belong to.

How the values were obtained:
JAK2 = JAK2 (Homo sapiens (Human), UniProt O60674); assay: JAK2 Z-Lyte biochemical assay; conditions: commercial JAK2 Z-Lyte assay from Invitrogen
Description: Example 3. JAK2 Z-Lyte Biochemical Assay of the Compounds of the Present Disclosure
The JAK2 Z-Lyte biochemical assay was performed according to manufacturer's instructions (Life Technologies).

[1] = Commercial microsome stability assay (half-life analysis); assay type: in vitro ADME; conditions: mouse liver microsomes; read-out: half-life in mouse liver microsomes (MLM)
CDK11A = CDK11A (Homo sapiens (Human), UniProt Q9UQ88); assay: Competition binding assay (kinase-tagged phage, qPCR); conditions: 11 serial threefold dilutions, read-out: inhibition on CDK11A, IC50
Description: Compounds of the present disclosure were analyzed with a competition binding assay with three components: a kinase-tagged phage, a compound of the present disclosure, and an immobilized ligand that the test compound competes with to displace the kinase. The amount of kinase bound to the immobilized ligand is determined using quantitative PCR of the DNA tag. Kd values (nM) reported for each compound were determined using 11 serial threefold dilutions of test compound and a DMSO control.

CDK11/cycK = assay: NanoBRET assay, CDK11/cycK; assay type: cell-based; conditions: live cells, read-out: inhibition of CDK11/cycK interaction
From the text: (§1) The NanoBRET™ assay (Promega Corporation) is a bioluminescence resonance energy transfer (BRET)-based assay that uses NanoLuc® Luciferase as the BRET energy donor and HaloTag® protein labeled with the HaloTag® NanoBRET™ 618 fluorescent Ligand as the energy acceptor to measure the interaction of two binding partners in live cells.

CDK11/CycL = assay: NanoBRET assay, CDK11/CycL; assay type: cell-based; conditions: live cells, read-out: inhibition of CDK11/CycL interaction
From the text: as §1

BRAF = BRAF (Homo sapiens (Human), UniProt P15056); assay: KINOMEscan kinase selectivity profiling; assay type: binding; conditions: read-out: Ambit KINOMEscan (percent control %)
From the text: (§2) Example 7. In Vitro Kinase Selectivity Profiling of the Compounds of the Present Disclosure

BRAF(V600E) = BRAF(V600E) (Homo sapiens (Human), UniProt P15056, V600E); assay: KINOMEscan kinase selectivity profiling; assay type: binding; conditions: read-out: Ambit KINOMEscan (percent control %)
From the text: as §2

CDC2L2 = CDC2L2 (Homo sapiens (Human), UniProt Q9UQ88); assay: KINOMEscan kinase selectivity profiling; assay type: binding; conditions: CDC2L2, 1 μM; read-out: Ambit KINOMEscan (percent control %)
From the text: as §2

CDK11B = CDK11B (Homo sapiens (Human), UniProt P21127); assay: KINOMEscan kinase selectivity profiling; assay type: binding; conditions: read-out: Ambit KINOMEscan (percent control %)
From the text: as §2

CSF1R = CSF1R (Homo sapiens (Human), UniProt P07333); assay: KINOMEscan kinase selectivity profiling; assay type: binding; conditions: read-out: Ambit KINOMEscan (percent control %)
From the text: as §2

DDR1 = DDR1 (Homo sapiens (Human), UniProt Q08345); assay: KINOMEscan kinase selectivity profiling; assay type: binding; conditions: DDR1, 1 μM; read-out: Ambit KINOMEscan (percent control %)
From the text: as §2

DDR2 = DDR2 (Homo sapiens (Human), UniProt Q16832); assay: KINOMEscan kinase selectivity profiling; assay type: binding; conditions: DDR2, 1 μM; read-out: Ambit KINOMEscan (percent control %)
From the text: as §2

KIT(L576P) = KIT(L576P) (Homo sapiens (Human), UniProt P10721, L576P); assay: KINOMEscan kinase selectivity profiling; assay type: binding; conditions: read-out: Ambit KINOMEscan (percent control %)
From the text: as §2

PDGFRB = PDGFRB (Homo sapiens (Human), UniProt P09619); assay: KINOMEscan kinase selectivity profiling; assay type: binding; conditions: read-out: Ambit KINOMEscan (percent control %)
From the text: as §2

TAOK2 = TAOK2 (Homo sapiens (Human), UniProt Q9UL54); assay: KINOMEscan kinase selectivity profiling; assay type: binding; conditions: TAOK2, 1 μM; read-out: Ambit KINOMEscan (percent control %)
From the text: as §2

[2] = test system: cell lines or patient-derived xenografts from patients with CRLF2-rearranged B-ALL; conditions: cited from earlier work

Sequence of JAK2 (O60674 whole entry): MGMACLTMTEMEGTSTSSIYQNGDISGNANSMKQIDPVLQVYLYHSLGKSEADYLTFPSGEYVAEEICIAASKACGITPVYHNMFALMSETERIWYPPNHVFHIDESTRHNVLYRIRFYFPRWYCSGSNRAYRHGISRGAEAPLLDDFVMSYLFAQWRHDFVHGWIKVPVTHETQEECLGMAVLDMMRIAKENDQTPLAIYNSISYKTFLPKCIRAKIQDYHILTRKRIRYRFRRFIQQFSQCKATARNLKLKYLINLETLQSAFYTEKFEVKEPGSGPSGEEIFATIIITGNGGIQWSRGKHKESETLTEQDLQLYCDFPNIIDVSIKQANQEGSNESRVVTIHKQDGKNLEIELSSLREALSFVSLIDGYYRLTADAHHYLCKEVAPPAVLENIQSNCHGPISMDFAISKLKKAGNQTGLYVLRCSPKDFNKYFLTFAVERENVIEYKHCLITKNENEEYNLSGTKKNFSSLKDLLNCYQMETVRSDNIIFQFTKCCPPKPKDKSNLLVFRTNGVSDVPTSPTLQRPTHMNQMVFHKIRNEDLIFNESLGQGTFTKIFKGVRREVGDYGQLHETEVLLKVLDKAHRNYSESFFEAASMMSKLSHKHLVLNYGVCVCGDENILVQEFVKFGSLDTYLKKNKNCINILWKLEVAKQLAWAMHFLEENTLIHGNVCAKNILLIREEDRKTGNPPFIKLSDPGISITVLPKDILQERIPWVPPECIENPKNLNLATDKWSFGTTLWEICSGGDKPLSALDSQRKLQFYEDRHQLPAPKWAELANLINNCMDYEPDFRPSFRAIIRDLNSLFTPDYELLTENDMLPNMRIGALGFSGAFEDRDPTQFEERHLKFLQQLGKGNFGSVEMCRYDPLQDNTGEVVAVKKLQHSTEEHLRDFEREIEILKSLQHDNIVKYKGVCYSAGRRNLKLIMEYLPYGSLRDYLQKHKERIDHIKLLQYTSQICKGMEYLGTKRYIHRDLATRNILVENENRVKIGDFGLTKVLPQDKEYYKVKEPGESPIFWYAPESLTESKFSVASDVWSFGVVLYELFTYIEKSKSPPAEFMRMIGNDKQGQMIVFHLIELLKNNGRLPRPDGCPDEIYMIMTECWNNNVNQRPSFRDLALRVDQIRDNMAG
Sequence of CDK11B (P21127 whole entry): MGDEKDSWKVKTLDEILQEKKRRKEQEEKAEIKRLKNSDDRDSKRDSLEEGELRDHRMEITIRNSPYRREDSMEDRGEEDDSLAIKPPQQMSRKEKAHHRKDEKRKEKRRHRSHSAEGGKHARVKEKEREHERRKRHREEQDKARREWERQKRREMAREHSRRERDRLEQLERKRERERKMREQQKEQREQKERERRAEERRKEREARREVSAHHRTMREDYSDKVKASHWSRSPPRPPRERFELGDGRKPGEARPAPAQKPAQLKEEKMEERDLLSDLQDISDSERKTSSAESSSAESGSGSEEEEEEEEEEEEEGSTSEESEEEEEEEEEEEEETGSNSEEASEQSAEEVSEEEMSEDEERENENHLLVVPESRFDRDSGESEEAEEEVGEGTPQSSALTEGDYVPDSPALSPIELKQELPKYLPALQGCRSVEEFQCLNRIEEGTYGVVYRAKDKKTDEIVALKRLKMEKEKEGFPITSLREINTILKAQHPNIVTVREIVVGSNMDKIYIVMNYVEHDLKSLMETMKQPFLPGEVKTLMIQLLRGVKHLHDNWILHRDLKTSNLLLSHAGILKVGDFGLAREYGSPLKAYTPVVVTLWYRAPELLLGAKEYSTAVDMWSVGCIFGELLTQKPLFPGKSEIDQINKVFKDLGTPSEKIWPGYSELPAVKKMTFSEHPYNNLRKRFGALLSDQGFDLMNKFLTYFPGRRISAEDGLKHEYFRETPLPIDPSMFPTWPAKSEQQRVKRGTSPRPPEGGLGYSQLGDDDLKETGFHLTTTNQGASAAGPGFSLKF
Sequence of TAOK2 (Q9UL54 whole entry): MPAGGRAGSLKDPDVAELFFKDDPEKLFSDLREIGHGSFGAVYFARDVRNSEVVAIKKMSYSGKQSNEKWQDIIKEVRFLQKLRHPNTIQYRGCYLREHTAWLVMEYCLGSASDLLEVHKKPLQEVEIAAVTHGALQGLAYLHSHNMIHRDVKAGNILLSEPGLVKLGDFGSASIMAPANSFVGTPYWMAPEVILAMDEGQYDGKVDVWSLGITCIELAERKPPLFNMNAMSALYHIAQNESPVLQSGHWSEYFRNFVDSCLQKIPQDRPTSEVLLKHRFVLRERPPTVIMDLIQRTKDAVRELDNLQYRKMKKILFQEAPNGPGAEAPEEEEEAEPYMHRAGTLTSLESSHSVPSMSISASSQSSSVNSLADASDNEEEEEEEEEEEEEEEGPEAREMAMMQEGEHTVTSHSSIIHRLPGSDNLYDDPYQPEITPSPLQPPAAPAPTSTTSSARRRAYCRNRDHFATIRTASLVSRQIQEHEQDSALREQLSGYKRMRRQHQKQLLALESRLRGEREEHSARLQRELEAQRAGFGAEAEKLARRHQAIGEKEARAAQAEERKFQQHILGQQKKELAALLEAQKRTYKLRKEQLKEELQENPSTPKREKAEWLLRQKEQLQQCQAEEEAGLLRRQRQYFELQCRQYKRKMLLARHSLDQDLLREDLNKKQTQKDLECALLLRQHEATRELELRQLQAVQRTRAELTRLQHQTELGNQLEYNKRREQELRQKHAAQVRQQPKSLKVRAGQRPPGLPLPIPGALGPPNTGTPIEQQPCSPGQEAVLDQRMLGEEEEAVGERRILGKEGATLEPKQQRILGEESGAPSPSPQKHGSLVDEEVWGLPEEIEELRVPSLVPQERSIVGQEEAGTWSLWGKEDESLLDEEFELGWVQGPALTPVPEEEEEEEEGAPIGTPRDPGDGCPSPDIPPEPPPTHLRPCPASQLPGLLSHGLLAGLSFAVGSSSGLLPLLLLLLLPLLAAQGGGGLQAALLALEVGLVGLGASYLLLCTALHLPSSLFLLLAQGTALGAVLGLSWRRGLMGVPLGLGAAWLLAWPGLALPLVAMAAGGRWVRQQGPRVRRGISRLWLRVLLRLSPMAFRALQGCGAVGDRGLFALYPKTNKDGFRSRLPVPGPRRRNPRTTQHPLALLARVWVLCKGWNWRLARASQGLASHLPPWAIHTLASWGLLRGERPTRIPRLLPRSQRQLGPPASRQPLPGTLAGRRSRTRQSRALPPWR
Sequence of CSF1R (P07333 20-972): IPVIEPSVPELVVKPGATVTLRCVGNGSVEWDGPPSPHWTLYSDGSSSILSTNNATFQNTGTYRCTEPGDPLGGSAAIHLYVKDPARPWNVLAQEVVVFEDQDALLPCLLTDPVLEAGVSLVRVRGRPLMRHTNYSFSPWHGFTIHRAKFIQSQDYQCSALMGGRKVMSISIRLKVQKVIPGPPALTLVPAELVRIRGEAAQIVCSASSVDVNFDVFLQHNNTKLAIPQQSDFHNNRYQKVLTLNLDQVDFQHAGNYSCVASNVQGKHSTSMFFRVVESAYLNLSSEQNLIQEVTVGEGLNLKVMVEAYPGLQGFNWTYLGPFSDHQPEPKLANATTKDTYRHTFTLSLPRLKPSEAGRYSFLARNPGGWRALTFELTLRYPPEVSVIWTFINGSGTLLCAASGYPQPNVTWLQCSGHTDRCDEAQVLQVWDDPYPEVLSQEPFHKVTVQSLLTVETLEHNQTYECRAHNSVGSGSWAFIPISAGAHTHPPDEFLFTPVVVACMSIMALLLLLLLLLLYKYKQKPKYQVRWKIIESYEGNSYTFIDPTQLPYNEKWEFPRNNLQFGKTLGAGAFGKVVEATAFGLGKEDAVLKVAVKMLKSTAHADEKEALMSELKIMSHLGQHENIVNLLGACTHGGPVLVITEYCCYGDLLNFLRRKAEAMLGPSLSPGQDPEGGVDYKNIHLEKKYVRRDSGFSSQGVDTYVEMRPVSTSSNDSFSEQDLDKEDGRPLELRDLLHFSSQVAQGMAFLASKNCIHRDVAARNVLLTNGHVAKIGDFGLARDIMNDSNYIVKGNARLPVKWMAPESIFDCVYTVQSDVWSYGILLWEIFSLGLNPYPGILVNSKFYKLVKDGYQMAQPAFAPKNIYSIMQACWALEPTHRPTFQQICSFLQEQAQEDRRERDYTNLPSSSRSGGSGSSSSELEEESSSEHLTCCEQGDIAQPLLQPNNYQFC
Sequence of KIT(L576P) (P10721 26-976 L576P): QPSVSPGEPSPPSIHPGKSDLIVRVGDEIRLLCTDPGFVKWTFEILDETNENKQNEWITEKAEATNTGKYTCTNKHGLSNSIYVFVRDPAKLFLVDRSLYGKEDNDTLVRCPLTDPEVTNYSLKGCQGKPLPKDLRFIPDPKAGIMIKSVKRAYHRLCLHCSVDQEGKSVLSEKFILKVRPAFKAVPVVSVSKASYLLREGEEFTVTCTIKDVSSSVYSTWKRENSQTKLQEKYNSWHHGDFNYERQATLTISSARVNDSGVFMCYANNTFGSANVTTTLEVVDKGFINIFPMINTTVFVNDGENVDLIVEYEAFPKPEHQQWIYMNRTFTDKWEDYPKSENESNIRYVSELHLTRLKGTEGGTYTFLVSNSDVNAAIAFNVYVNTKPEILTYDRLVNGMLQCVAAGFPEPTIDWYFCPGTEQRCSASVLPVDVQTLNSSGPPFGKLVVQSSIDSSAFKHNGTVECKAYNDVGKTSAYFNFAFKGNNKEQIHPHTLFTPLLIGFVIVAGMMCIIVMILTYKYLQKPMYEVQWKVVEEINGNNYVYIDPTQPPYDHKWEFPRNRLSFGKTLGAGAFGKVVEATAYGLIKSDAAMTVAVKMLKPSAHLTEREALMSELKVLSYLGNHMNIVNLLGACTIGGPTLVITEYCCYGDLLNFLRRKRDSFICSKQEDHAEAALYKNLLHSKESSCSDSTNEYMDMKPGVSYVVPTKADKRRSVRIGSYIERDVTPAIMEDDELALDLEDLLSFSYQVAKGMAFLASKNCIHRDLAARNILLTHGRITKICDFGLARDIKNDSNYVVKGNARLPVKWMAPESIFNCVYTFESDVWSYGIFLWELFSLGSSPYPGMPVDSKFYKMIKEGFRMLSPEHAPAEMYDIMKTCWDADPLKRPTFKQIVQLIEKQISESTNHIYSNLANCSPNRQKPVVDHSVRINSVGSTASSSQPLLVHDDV

IC50 (JAK2): 0.82 µM
half-life [1]: 16.7 min
IC50 (CDK11A): 30 nM
IC50 (CDK11/cycK): 278 nM
IC50 (CDK11/CycL): 290 nM
remaining binding at 1 µM (BRAF): 5.5%
remaining binding at 1 µM (BRAF(V600E)): 2%
remaining binding at 1 µM (CDC2L2): 1%
remaining binding at 1 µM (CDK11B): 1.3%
remaining binding at 1 µM (CSF1R): 0.75%
remaining binding at 1 µM (DDR1): 0%
remaining binding at 1 µM (DDR2): 0%
remaining binding at 1 µM (KIT(L576P)): 0.2%
remaining binding at 1 µM (PDGFRB): 0.1%
remaining binding at 1 µM (TAOK2): 0.3%
SMILES: CCN1CCN(Cc2ccc(Nc3nc4ccc(Oc5ccnc(NC(C)=O)c5)c5c4n3CCC5)cc2C(F)(F)F)CC1 [Compound I-1, N-(4-((2-((4-((4-ethylpiperazin-1-yl)methyl)-3-(trifluoromethyl)phenyl)amino)-5,6-dihydro-4H-imidazo [4,5,1-ij]quinolin-7-yl)oxy)pyridin-2-yl) acetamide]

IC50 (JAK2): 1.81 µM
SMILES: CCN1CCN(Cc2cc(Nc3nc4ccc(Oc5ccnc(NC(C)=O)c5)c5c4n3CCC5)cc(C(F)(F)F)c2)CC1 [Compound I-4, N-(4-((2-((3-((4-ethylpiperazin-1-yl)methyl)-5-(trifluoromethyl)phenyl)amino)-5,6-dihydro-4H-imidazo[4,5,1-ij]quinolin-7-yl)oxy)pyridin-2-yl)acetamide]

IC50 (JAK2): 5.94 µM
SMILES: CC(=O)Nc1cc(Oc2ccc3nc(Nc4ccc(CN5CCN(C)CC5)cc4)n4c3c2CCC4)ccn1 [Compound I-5, N-(4-((2-((4-((4-methylpiperazin-1-yl)methyl)phenyl)amino)-5,6-dihydro-4H-imidazo[4,5,1-ij]quinolin-7-yl)oxy)pyridin-2-yl)acetamide]

IC50 (JAK2): 9.93 µM
SMILES: CC(=O)Nc1cc(Oc2ccc3nc(Nc4cc(N5CCN(C)CC5)cc(C(F)(F)F)c4)n4c3c2CCC4)ccn1 [Compound I-8, N-(4-((2-((3-(4-methylpiperazin-1-yl)-5-(trifluoromethyl)phenyl)amino)-5,6-dihydro-4H-imidazo[4,5,1-ij]quinolin-7-yl)oxy)pyridin-2-yl)acetamide]

IC50 (JAK2): 3.68 µM
SMILES: CC(=O)Nc1cc(Oc2ccc3nc(Nc4ccc(OC5CCN(C)CC5)c(C(F)(F)F)c4)n4c3c2CCC4)ccn1 [Compound I-11, N-(4-((2-((4-((1-methylpiperidin-4-yl)oxy)-3-(trifluoromethyl)phenyl)amino)-5,6-dihydro-4H-imidazo[4,5,1-ij]quinolin-7-yl)oxy)pyridin-2-yl)acetamide]

The next lines start with the compound.

SMILES: CC(=O)Nc1cc(Oc2ccc3nc(Nc4ccc(Cl)c(C(F)(F)F)c4)n4c3c2CCC4)ccn1 [Compound I-3, N-(4-((2-((4-chloro-3-(trifluoromethyl)phenyl)amino)-5,6-dihydro-4H-imidazo[4,5,1-ij]quinolin-7-yl)oxy)pyridin-2-yl)acetamide]
IC50 (JAK2): > 10 µM

SMILES: CC(=O)Nc1cc(Oc2ccc3nc(Nc4ccc(F)cc4F)n4c3c2CCC4)ccn1 [Compound I-6, N-(4-((2-((2,4-difluorophenyl)amino)-5,6-dihydro-4H-imidazo[4,5,1-ij]quinolin-7-yl)oxy)pyridin-2-yl)acetamide]
IC50 (JAK2): 1.82 µM

SMILES: CC(=O)Nc1cc(Oc2ccc3nc(Nc4cc(-n5cnc(C)c5)cc(C(F)(F)F)c4)n4c3c2CCC4)ccn1 [Compound I-7, N-(4-((2-((3-(4-methyl-1H-imidazol-1-yl)-5-(trifluoromethyl)phenyl)amino)-5,6-dihydro-4H-imidazo[4,5,1-ij]quinolin-7-yl)oxy)pyridin-2-yl)acetamide]
IC50 (JAK2): 4.56 µM

SMILES: CC(=O)Nc1cc(Oc2ccc3nc(Nc4ccc(CN5CCC(N(C)C)C5)c(C(F)(F)F)c4)n4c3c2CCC4)ccn1 (stereo not shown) [Compound I-9, N-(4-((2-((4-((3-(dimethylamino)pyrrolidin-1-yl)methyl)-3-(trifluoromethyl)phenyl)amino)-5,6-dihydro-4H-imidazo[4,5,1-ij]quinolin-7-yl)oxy)pyridin-2-yl)acetamide]
IC50 (JAK2): 1.77 µM

SMILES: CC(=O)Nc1cc(Oc2ccc3nc(Nc4cc(C(C)(C)C)nn4-c4ccc(C)cc4)n4c3c2CCC4)ccn1 [Compound I-10, N-(4-((2-((3-(tert-butyl)-1-(p-tolyl)-1H-pyrazol-5-yl)amino)-5,6-dihydro-4H-imidazo[4,5,1-ij]quinolin-7-yl)oxy)pyridin-2-yl)acetamide]
IC50 (JAK2): > 10 µM

SMILES: N#CC[C@H](C1CCCC1)n1cc(-c2ncnc3[nH]ccc23)cn1 [Ruxolitinib]
IC50 [2]: > 20 µM
